Measurements from patent US5589461A, “Active substance for inhibiting the proliferation rate of hepatocytes” (priority 1994, dated 1996).
Values joined by “and” are separate entries in the source; they are usually repeats but may differ in a detail not shown here. Equal values may be shown once. Where a SMILES comes first, the peptide text is derived from it.

Legend:
[1] = tested on: YOSHIDA liver tumor cell ascites AH 130; experiment: development of the YOSHIDA ascites AH 130 in rat; format: in vivo
Experimental: Two groups, each comprising five female Wistar rats weighing approx. 100 grams, were inoculated with the YOSHIDA liver tumor cell ascites AH 130 of a rat having been infected 8 days ago. 0.5 ml of ascites fluid were injected intraperitoneally (i.p.) to each animal. Starting on the seventh day after ascites inoculation, 1 μg of SDK (dissolved in 1 ml of 0.9% NaCl solution) was injected i.p. to each animal of one group (five rats) during four days. Then the animals of both groups were killed. The following parameters were determined:
(a) Weight or respectively volume of ascites fluid. The killed rats were weighed, the ascites was sucked off as completely as possible, and the animals were weighed again. The difference resulting from these two ponderations corresponded to the ascites volume (1 g ≈1 ml).
(b) Number of tumor cells in the ascites 2 ml of the sucked-off ascites for each animal were placed into an EDTA tube, to prevent cells from agglomerating. With an aliquot thereof, the number of tumor cells was measured in a Coulter counter and extrapolated for the total volume.
The third and fourth columns give the respective results of twin measurements.

human T-cells = settings: cited from earlier work
hepatocytes = experiment: proliferation rate of hepatocytes in rats after 66% partial hepatectomy (3H-thymidine, specific radioactivity of DNA); format: in vivo, rat
Source text: To carry out these experiments, young female Wistar rats weighing 100 g were used, which had been provided from the SPF animal house department of the Max-Planck-Instut fur Biochemie in D-82152 Martinstied.
Seven groups of rats were subjected to 66% partial hepatectomy. In each experimental group 4 animals were used. In a slight modification of the Higgins and Anderson method (Higgins, G. M., Anderson, R. M., Archives of Pathology 12 (1931), p. 186-202), the rats were submitted to partial hepatectomy between 13.00 h and 13.30 h. The tetrapeptide SDKP synthesized in the conventional way and dissolved in 1 ml of 0.9% NaCl was injected intraperitoneally (i.p.) to three groups immediately after operation and to three other groups 10 hrs after the operation, each three with different quantities (500 μg, 1 μg). The seventh group served as a control group, receiving the solvent only. […] The livers were conserved at -20° C. up to the time of determining the specific radioactivity of the DNA in the hepatocyte nuclei.
This specific radioactivity was used as a marker for the proliferation behaviour of the hepatocytes: Thymidine is incorporated only in DNA (not e.g. in RNA), and significant DNA synthesis is effected only during cell proliferation. The specific radioactivity of the DNA (in dpm/μg DNA) is the quotient of the result of radioactivity measurement of a sample (in dpm, i.e. disintegrations per minute) by the DNA content of that sample (in μg). The proliferation promoting or proliferation inhibiting character of the peptide (depending on the administered dose and the time of administration after partial hepatectomy) was determined by establishing the percentage of the specific radioactivity of the DNA in the hepatocyte nuclei of the experimental group as compared with the specific radioactivity of the control group associated with each experiment.
For determination of the specific radioactivity, the DNA was first extracted from the liver. […]
For measurement of the radioactivity, scintillation counting liquid was added to 1 ml of the extract, and ^3 H measurement was effected. […]

[2] = tested on: IgM secreting B-lymphocytes; settings: mice; cited from earlier work
Hep G2 cells = experiment: human tumor cells in tissue culture (cell growth, 3H-thymidine incorporation); format: cell-based
Experimental: The effect of the tripeptide on human tumor cells was tested in an in-vitro model. For this purpose, Hep G2 cells were used. This cell line is a human hepatom from the tumor cell bank of "Deutsches Krebsforschungszentrum Heidelberg ", which is cultivated as a monolayer in 90% DMEM (Dulbecco's modified Eagle's medium)/10% FKS (fetal calf serum) in a subculture interval of three to five days. Sixty dishes of each of the experimental and control cultures were used. A solution of 20 mg of SDK in 0.2 ml of 0.9% NaCl served as a stock solution which was diluted with a physiological sodium chloride solution as required for each case.
One day after transferring the cells, 0.2 ml of tripeptide SDK dissolved in 0.9% NaCl (concentration: 1 μg/ml) were added to each 10 ml of culture medium. The control dishes received 0.2 ml of solvent.
This test was repeated, this time adding 0.5 ng, 1.0 ng, 2.0 ng and 4.0 ng of SDK in 0.9% NaCl per 1 ml of culture medium. The control dishes again received the corresponding quantity of solvent. Moreover, 0.05 mCi 6-^3 H-thymidine were added to the cultures […] prior to expiration of the observation period, followed by incubation for 1 hour. The DNA of the cells was isolated as described under item (1.), and the radioactivity was measured- The results are listed in the following chart.

hepatitis B viruses = experiment: synthesis of hepatitis B viruses in transfected Hep G2 cells (HBSAG/HBEAG radioimmunoassay); format: cell-based; settings: for Ratio of mean values in cpm before/after treatment, HBEAG / Ratio of mean values in cpm before/after treatment, HBSAG: six days
Source text: Hepatitis B viruses can be cultivated in Hep G2 cells. For this purpose, a recombining plasmide containing the complete virus DNA is channelled into the cells. Starting from this, the synthesizing mechanism of the cells transfected in this way will produce hepatitis B viruses (cf. Chungming Chang et al., EMBO J. 6, p. 675-680, 1987) The virus synthesis manifests itself by secreting large quantities of two surface antigens of that virus (HBSAG and HBEAG). The antigens can be detected by means of a radioimmunoassay (RIA). In this determination, an unknown quantity of antigen (HBSAG and HBEAG) competes with a known quantity of radioactively marked antigen for a limited number of antibody binding positions in a predetermined quantity of the antiserum. In the state of equilibrium, the surplus antigen exists in both the bound and the free dissolved conditions. Now, if the quantity of radioactively marked antigen is constant in a series of reactions, the proportion bound to the antibody will decrease in accordance with an increasing quantity of unmarked antigen added to the individual samples.
For practical execution of this process, a calibration curve is established first, using known quantities of marked and unmarked antigen, which will then permit determination of the unknown quantity of antigen. After incubation, the free antigen is separated from the bound antigen, and the two fractions are measured separately.
A Hep-G2 cell culture was steadily transfected with hepatitis B viruses as described by SELLS et al., Proc. Natl. Acad. Sci. USA 1987, 84, p. 1005-1009. The transfected cells were sowed in ten 4.5 cm dishes at a density of 8×10^5 cells, and in four 9 cm dishes at a density of 1.6×10^6 cells respectively. After 24 hours, fresh medium was added, containing the tripeptide SDK at concencentrations of 0.5 ng/ml, 1.0 ng/ml, 3.0 ng/ml and 5 ng/ml for each two 4.9 cm dishes, or 1.0 ng/ml for each two 9 cm dishes respectively. The tripeptide had been prediluted in completed DMEM ([…]) and sterilized by filtration. The remaining dishes served as a control, receiving the pure medium. The old medium was conserved in the supernatant for measurement of antigens, in order to exclude artifacts due to possible heterogeneities of cell density. The samples of medium for measurement of antigens were taken after six days. Measurement was effected using a standard RIA kit (HBSAG Ansria II/125, type 7802, and HBEAG Abbott Hbe (rDNA), type 1237/24, both from Abbott, Wiesbaden), according to instructions for use. The experiments were conducted with twin samples (two dishes each), since the cells from one dish were not enough.

[3] = 0.5 ng of SDK per ml of medium, 4.5 cm dishes
[4] = 1.0 ng of SDK per ml of medium, 4.5 cm dishes
[5] = 1.0 ng of SDK per ml of medium, 9.0 cm dishes
[6] = 3.0 ng of SDK per ml of medium, 4.5 cm dishes
[7] = 5.0 ng of SDK per ml of medium, 4.5 cm dishes

NCCCC[C@H](NC(=O)[C@H](CC(=O)O)NC(=O)[C@@H](N)CO)C(=O)O [SDK, Ser-Asp-Lys] (H-Ser-Asp-Lys-OH)
average number of tumor cells as % of the number found in control animals ([1]; 1 μg SDK/animal i.p. during four days): 19.1% | Ascites ([1]; 1 μg SDK/animal i.p. during four days from seventh day after ascites inoculation): 5.1 mL and 5.2 mL and 4.3 mL and 5.7 mL | quantity of ascites ([1]; 1 μg SDK/animal vs control): drastic decrease | total number of tumor cells ([1]; 1 μg SDK/animal vs control): drastic decrease | Cell number total, mean value + standard deviation ([1]; 1 μg SDK/animal, five rats): 147.7 ± 70.1 × 10^6 | rosette formation due to interaction of human T-cells and sheep erythrocytes (human T-cells): inhibits rosette formation | effect on hepatocyte proliferation (hepatocytes; 1 μg injected after a certain time interval (1 h, 3, 6, 10 hrs after operation)): inhibiting effect | effect on hepatocyte proliferation (hepatocytes; 1 μg injected immediately after operation): slightly proliferation promoting effect | decrease in proliferation (hepatocytes; 1 μg injected ten hours after operation): about fifty | immunomodulating effect: humoral response (generation of IgM secreting B-lymphocytes) to red blood cells of sheep [2]: stimulation of the humoral response | Inhibition of proliferation in % (Hep G2 cells; 0.5 ng of SDK per ml of medium): 19.3% | Inhibition of proliferation in % (Hep G2 cells; 1.0 ng of SDK per ml of medium): 44.9% | Inhibition of proliferation in % (Hep G2 cells; 2.0 ng of SDK per ml of medium): 34.0% | Inhibition of proliferation in % (Hep G2 cells; 4.0 ng of SDK per ml of medium): 12.4% | concentration of maximum proliferation inhibiting effect (Hep G2 cells; Hep G2, per ml of culture medium): 1 ng/mL | Ratio of mean values in cpm before/after treatment, HBEAG (hepatitis B viruses; [3]): 6.10 | Ratio of mean values in cpm before/after treatment, HBSAG (hepatitis B viruses; [3]): 4.47 | Ratio of mean values in cpm before/after treatment, HBEAG (hepatitis B viruses; [4]): 6.22 | Ratio of mean values in cpm before/after treatment, HBSAG (hepatitis B viruses; [4]): 4.18 | Ratio of mean values in cpm before/after treatment, HBEAG (hepatitis B viruses; [5]): 6.59 | Ratio of mean values in cpm before/after treatment, HBSAG (hepatitis B viruses; [5]): 3.89 | Ratio of mean values in cpm before/after treatment, HBEAG (hepatitis B viruses; [6]): 7.31 | Ratio of mean values in cpm before/after treatment, HBSAG (hepatitis B viruses; [6]): 4.57 | Ratio of mean values in cpm before/after treatment, HBEAG (hepatitis B viruses; [7]): 8.00 | Ratio of mean values in cpm before/after treatment, HBSAG (hepatitis B viruses; [7]): 4.18 | concentration of antigens, and hence the virus synthesis (hepatitis B viruses; transfected Hep G2 cells, SDK vs untreated): significantly reduced
